From paper PMC11790763, “A Peptide Motif Covering Splice Site B in Neuroligin-1 Binds to Aβ and Acts as a Neprilysin Inhibitor” (Molecular Neurobiology, 2024)
Bridges are numbered along the chain shown (N, C = ends). Roman numbers before positions name the chains, in order. Where no end group is shown, it is not given here.

Experiments:
5XFAD and WT mice = experiment: Aβ plaque load, Thioflavin-S staining of brain sections; assay type: in vivo, mouse
Method: At the age of 2 months, 5XFAD and WT mice were injected subcutaneously (s.c.) with either neurolide (10 mg/kg) or saline in a volume of 0.1 ml/10 g of body weight three times a week for 10 weeks.
After 10 weeks of treatment, mice were transcardially perfused with 0.1 M PBS, pH 7.4 under deep pentobarbital anesthesia (intraperitoneal, 200 mg/kg). The left brain hemispheres were postfixed in 4% paraformaldehyde in PBS. The brain hemispheres were further dehydrated in ethanol, cleared, embedded in paraffin blocks and serially sectioned into 7-μm coronal sections through the entire brain hemisphere. Parallel series of sections were collected, consisting of 12 equally spaced Sects. (400 μm apart). One of the series was stained with 1% Thioflavin-S for histological evaluation of Aβ plaque formation. Another series was used for immunohistochemical staining of GFAP + astrocytes as described previously. Extracellular Aβ plaque load was assessed in cortex, hippocampus, striatum, thalamus, and hypothalamus. GFAP-positive astrocytes were assessed in motor cortex. Serial super images of whole-brain sections were acquired using an Olympus BX-51 microscope equipped with the Visiopharm Integrator System software (Visiopharm) and analyzed using the ImageJ software package. The pictures were converted to 8-bit images, and the area of interest was marked. The intensity threshold was fixed to fit Thioflavin-S or GFAP signal. The area, covered by Thioflavin-S or GFAP staining, was measured in selected regions.

Aβ40-1 = experiment: Competitive ELISA with reversed Aβ (Aβ40-1) as negative control; assay type: binding; conditions: competitive ELISA with biotinylated reverse Aβ40-1; signal only at the highest neurolide concentration; p < 0.0001 versus Aβ1-40
Method: NL1 and NL1-derived peptide binding to Aβ was measured by competitive ELISA using the shorter Aβ1-40 peptide with a slower polymerization constant, optimized for this binding assay. Recombinant NL1 (3.125 nM) was immobilized on a poly-sorb 96-well plate (NUNC, Roskilde, Denmark) using sodium bicarbonate buffer (pH 9.6), and left overnight at 4 °C, followed by washing with PBST buffer (PBS supplemented with 0.1% [vol/vol] Tween-20, pH 7.4). In separate tubes, biotinylated Aβ1-40, at final concentration 400 nM, was premixed with serially diluted NL1 or NL1-derived peptides for 30 min. A reversed version of Aβ (Aβ40-1) was used as the respective negative control (Supplementary Fig. 1). After preincubation, the samples were centrifuged at 20,000 × g for 10 min at 4 °C and 100 μl of the mixtures were transferred in triplicates onto the precoated ELISA plate. Plates were incubated at room temperature for 4 h, followed by washing and incubation with streptavidin-HRP conjugate (1:1000, 1 h; Dako, Glostrup, Denmark). The signal was developed with TMB ONE (KEM-EN-TEC, Denmark), and the reaction was terminated with 0.2 M H2SO4. Absorbance was measured at 450 nm on a Wallac VICTOR2 1420 Multilabel Counter (PerkinElmer, Hvidovre, Denmark). […]

Aβ1-42 = conditions: NL1 at 1 nM; cited from earlier work
Excerpt: This higher accumulation of Aβ plaques promoted by the neurolide treatment prompted us to look for an explanation for this phenome ...

[1] = 5XFAD mice, 10 mg/kg s.c. three times a week for 10 weeks, neurolide n = 11 versus saline n = 13

## I: SEGNRWSNSTKGLFQRAKK-NH2 / II: SEGNRWSNSTKGLFQRAK / III: SEGNRWSNSTKGLFQRA / IV: SEGNRWSNSTKGLFQRA (amide I:18-IV:C, I:19-II:C, II:18-III:C; C-terminus assumed) [neurolide]
5XFAD and WT mice; [1]
  average size of thioflavin-S-positive plaques in the cortex: significant increase
  fractional area of thioflavin-S-positive plaques in the cortex: significant increase
5XFAD and WT mice; 5XFAD mice, hippocampus, striatum, thalamus, hypothalamus, versus saline
  plaque area or plaque size in other brain regions: no significant difference
5XFAD and WT mice; WT mice, 10 mg/kg s.c. three times a week for 10 weeks
  plaques in WT brains: no plaques
Aβ40-1
  Kd: 7.5 µM

B1: NL1: recombinant rat neuroligin-1, soluble ectodomain (R&D systems) (protein, UniProt Q62765 46-697, looked up)
extracellular domain: QKLDDVDPLVTTNFGKIRGIKKELNNEILGPVIQFLGVPYAAPPTGEHRFQPPEPPSPWSDIRNATQFAPVCPQNIIDGRLPEVMLPVWFTNNLDVVSSYVQDQSEDCLYLNIYVPTEDVKRISKECARKPGKKICRKGDIRDSGGPKPVMVYIHGGSYMEGTGNLYDGSVLASYGNVIVITVNYRLGVLGFLSTGDQAAKGNYGLLDLIQALRWTSENIGFFGGDPLRITVFGSGAGGSCVNLLTLSHYSEGNRWSNSTKGLFQRAIAQSGTALSSWAVSFQPAKYARILATKVGCNVSDTVELVECLQKKPYKELVDQDVQPARYHIAFGPVIDGDVIPDDPQILMEQGEFLNYDIMLGVNQGEGLKFVENIVDSDDGVSASDFDFAVSNFVDNLYGYPEGKDVLRETIKFMYTDWADRHNPETRRKTLLALFTDHQWVAPAVATADLHSNFGSPTYFYAFYHHCQTDQVPAWADAAHGDEVPYVLGIPMIGPTELFPCNFSKNDVMLSAVVMTYWTNFAKTGDPNQPVPQDTKFIHTKPNRFEEVAWTRYSQKDQLYLHIGLKPRVKEHYRANKVNLWLELVPHLHNLNDISQYTSTTTKVPSTDITLRPTRKNSTPVTSAFPTAKQDDPKQQPSPFSVDQRDYSTELS
modifications: extracellular domain
Aβ1-42
  effect on Aβ aggregation at low concentration: accelerated the aggregation
